The target in assay [1] is T1, carboxylate reductase of SEQ ID NO: 1 (Mycobacterium marinum, UniProt B2HN69).
T1 construct: His-tag (N); made in house; host or cells: E. coli BL21[DE3], pET Duet
Description: carboxylate reductase activity, 5-hydroxypentanoate to 5-hydroxypentanal. It is filed as biochemical. The following applies: SEQ ID NO 1, enhanced by sfp gene product; 1 mM ATP, 1 mM NADPH, pH 7.5, room temperature, 20 min; FIG. 12. The procedure: (§1) A sequence encoding a His-tag was added to the genes from Mycobacterium marinum, Mycobacterium smegmatis, Segniliparus rugosus, Mycobacterium massiliense, and Segniliparus rotundus that encode the carboxylate reductases of SEQ ID NOs: 1, 2, 3, 5 and 6, respectively (see FIG. 7) such that N-terminal HIS tagged carboxylate reductases could be produced. Each of the modified genes was cloned into a pET Duet expression vector alongside a sfp gene encoding a His-tagged phosphopantetheine transferase from Bacillus subtilis, both under control of the T7 promoter.
(§2) Each expression vector was transformed into a BL21[DE3] E. coli host and the resulting recombinant E. coli strains were cultivated at 37° C. in a 250 mL shake flask culture containing 50 mL LB media and antibiotic selection pressure, with shaking at 230 rpm. Each culture was induced overnight at 37° C. using an auto-induction media.
(§3) The pellet from each induced shake flask culture was harvested via centrifugation. Each pellet was resuspended and lysed via sonication. […]
(§4) Enzyme activity (i.e., 5-hydroxypentanoate to 5-hydroxypentanal) assays were performed in triplicate in a buffer composed of a final concentration of 50 mM HEPES buffer (pH=7.5), 2 mM 5-hydroxypentanal, 10 mM MgCl2, 1 mM ATP, and 1 mM NADPH. […] The consumption of NADPH was monitored by absorbance at 340 nm.

Assay [2] concerns carboxylate reductase of SEQ ID NO: 2. The description is as above. It counts as biochemical, Mycobacterium smegmatis. The following applies: SEQ ID NO 2, enhanced by sfp gene product; 1 mM ATP, 1 mM NADPH, pH 7.5, room temperature, 20 min; FIG. 12. The procedure:
as §1, §2, §3, §4

For assay [3], the system named is carboxylate reductase of SEQ ID NO: 3. The assay is described as above. It is filed as biochemical, Segniliparus rugosus. Particulars: SEQ ID NO 3, enhanced by sfp gene product; 1 mM ATP, 1 mM NADPH, pH 7.5, room temperature, 20 min; FIG. 12. The procedure: as §1, §2, §3, §4
In assay [4] the test system is carboxylate reductase of SEQ ID NO: 5. The assay is described as above. It is filed as biochemical, Mycobacterium massiliense. The following applies: SEQ ID NO 5, enhanced by sfp gene product; 1 mM ATP, 1 mM NADPH, pH 7.5, room temperature, 20 min; FIG. 12. As to the method:
as §1, §2, §3, §4

Assay [5] has as its system carboxylate reductase of SEQ ID NO: 6. The assay is described as above. It counts as biochemical, Segniliparus rotundus. The following applies: SEQ ID NO 6, enhanced by sfp gene product; 1 mM ATP, 1 mM NADPH, pH 7.5, room temperature, 20 min; FIG. 12. As to the method:
as §1, §2, §3, §4

Assay [6] deals with reversible 5-aminovalerate transaminase. The following applies: Barker et al., J. Biol. Chem., 1987; cited from earlier work.
The subject of assay [7] is reversible ω-transaminase (SEQ ID NO: 7). The following applies: Kaulmann et al., 2007; cited from earlier work.
Assay [8] has as its system reversible 4-aminobubyrate:2-oxoglutarate transaminase. Particulars: Yonaha et al., Eur. J. Biochem., 1985; cited from earlier work.
Assay [9] relates to diamine transaminase. Particulars: Kim, 1964; cited from earlier work.
The test system of assay [10] is ω-transaminase of SEQ ID NO: 9. Put plainly: ω-transaminase activity, glutarate semialdehyde to 5-aminopentanoate (reverse direction). It counts as biochemical, Pseudomonas syringae. Particulars: cell free extract; 10 mM glutarate semialdehyde, 10 mM L-alanine, pH 7.5, 25° C., 4 h; RP-HPLC; FIG. 9. As to the method:
A sequence encoding an N-terminal His-tag was added to the genes from Chromobacterium violaceum and Pseudomonas syringae encoding the ω-transaminases of SEQ ID NOs: 7 and 9, respectively (see FIG. 7) such that N-terminal HIS tagged ω-transaminases could be produced. Each of the resulting modified genes was cloned into a pET21a expression vector under control of the T7 promoter and each expression vector was transformed into a BL21[DE3] E. coli host. The resulting recombinant E. coli strains were cultivated at 37° C. in a 250 mL shake flask culture containing 50 mL LB media and antibiotic selection pressure, with shaking at 230 rpm. Each culture was induced overnight at 16° C. using 1 mM IPTG.
The pellet from each induced shake flask culture was harvested via centrifugation. Each pellet was resuspended and lysed via sonication. The cell debris was separated from the supernatant via centrifugation and the cell free extract was used immediately in enzyme activity assays.
Enzyme activity in the reverse direction (i.e., glutarate semialdehyde to 5-aminopentanoate) were performed in a buffer composed of a final concentration of 50 mM HEPES buffer (pH=7.5), 10 mM glutarate semialdehyde, 10 mM L-alanine and 100 μM pyridoxyl 5′ phosphate. […] The formation of pyruvate was quantified via RP-HPLC.

Assay [11] concerns carboxylate reductase of SEQ ID NO 6. Put plainly: carboxylate reductase activity, glutarate semialdehyde to pentanedial. It counts as biochemical, Segniliparus rotundus. Particulars: SEQ ID NO 6, enhanced by sfp gene product; 2 mM glutarate semialdehyde, 1 mM ATP, 1 mM NADPH, pH 7.5, room temperature, 20 min; FIG. 15. As to the method:
The N-terminal His-tagged carboxylate reductase of SEQ ID NO 6 (see Example 2 and FIG. 7) was assayed using glutarate semialdehyde as substrate. The enzyme activity assay was performed in triplicate in a buffer composed of a final concentration of 50 mM HEPES buffer (pH=7.5), 2 mM glutarate semialdehyde, 10 mM MgCl2, 1 mM ATP and 1 mM NADPH. The enzyme activity assay reaction was initiated by adding purified carboxylate reductase and phosphopantetheine transferase or the empty vector control to the assay buffer containing the glutarate semialdehyde and then incubated at room temperature for 20 min. The consumption of NADPH was monitored by absorbance at 340 nm.

The structures appear in SMILES notation.

T1 sequence (B2HN69 whole entry): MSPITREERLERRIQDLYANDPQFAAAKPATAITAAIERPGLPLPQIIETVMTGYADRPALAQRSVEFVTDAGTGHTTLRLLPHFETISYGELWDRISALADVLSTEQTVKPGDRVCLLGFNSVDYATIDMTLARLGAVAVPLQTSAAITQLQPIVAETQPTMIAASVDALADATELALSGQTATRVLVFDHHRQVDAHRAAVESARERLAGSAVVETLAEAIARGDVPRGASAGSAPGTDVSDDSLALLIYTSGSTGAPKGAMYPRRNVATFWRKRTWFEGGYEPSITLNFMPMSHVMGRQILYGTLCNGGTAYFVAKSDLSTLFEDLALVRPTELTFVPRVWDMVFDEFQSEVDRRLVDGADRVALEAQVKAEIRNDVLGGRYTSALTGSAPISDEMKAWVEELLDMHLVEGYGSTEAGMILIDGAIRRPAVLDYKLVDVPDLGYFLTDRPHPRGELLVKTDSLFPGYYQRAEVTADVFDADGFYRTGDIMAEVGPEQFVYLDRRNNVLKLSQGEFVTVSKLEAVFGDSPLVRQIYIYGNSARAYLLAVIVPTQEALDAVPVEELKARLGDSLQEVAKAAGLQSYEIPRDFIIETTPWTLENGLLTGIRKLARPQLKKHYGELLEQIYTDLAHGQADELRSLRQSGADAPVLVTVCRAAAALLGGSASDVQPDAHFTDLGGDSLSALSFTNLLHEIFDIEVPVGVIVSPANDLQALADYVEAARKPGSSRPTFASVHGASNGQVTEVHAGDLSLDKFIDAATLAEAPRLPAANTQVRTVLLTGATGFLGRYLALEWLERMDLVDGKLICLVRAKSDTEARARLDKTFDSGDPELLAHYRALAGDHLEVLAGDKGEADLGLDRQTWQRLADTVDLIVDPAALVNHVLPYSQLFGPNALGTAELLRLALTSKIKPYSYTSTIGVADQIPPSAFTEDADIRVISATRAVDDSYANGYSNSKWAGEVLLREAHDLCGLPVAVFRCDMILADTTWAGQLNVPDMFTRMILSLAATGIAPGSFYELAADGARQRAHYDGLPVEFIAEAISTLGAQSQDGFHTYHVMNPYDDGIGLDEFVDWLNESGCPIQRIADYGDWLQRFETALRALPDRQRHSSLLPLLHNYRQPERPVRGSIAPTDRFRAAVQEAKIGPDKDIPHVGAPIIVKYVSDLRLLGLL

Consider `O=C(O)CCCCO` [5-hydroxypentanoate], for which the “acceptance as substrate (consumption of NADPH, absorbance at 340 nm) vs empty vector control” value in assay [1], in assay [2], in assay [3], in assay [4] and in [5] was “accepted 5-hydroxypentanoate as substrate” in each case.
`NCCCCCC(=O)O` [6-aminohexanoate]: the “activity for the conversion to adipate semialdehyde” value in assay [6] and in assay [8] was “demonstrated analogous activity” each time. The “activity accepting as amino donor” value in [7] is “demonstrated analogous activity”.
On to `NCCCCCCCN` [1,7 diaminoheptane], for which the diamine transaminase activity entry in assay [9] is listed as “demonstrated activity”.
Consider `O=CCCCC(=O)O` [glutarate semialdehyde], for which the “acceptance as substrate (conversion of L-alanine to pyruvate) vs empty vector control” value in assay [10] is recorded as “accepted glutarate semialdehyde as substrate”. Besides, the “acceptance as substrate (consumption of NADPH, absorbance at 340 nm) vs empty vector control” value in [11] is “accepted glutarate semialdehyde as substrate”.

The values are drawn from US20150111262A1, “METHODS AND MATERIALS FOR PRODUCING FIVE CARBON BUILDING BLOCKS FROM PROLINE” (INVISTA North America S.á r.l., priority 2013, published 2015).
